For twelve compounds, DC50 and Dmax results are on record in patent US11957759B1, “Rapidly accelerated fibrosarcoma (RAF) degrading compounds and associated methods of use” (Arvinas Operations, Inc., priority 2022, dated 2024).

The target of experiment [1] is T1, B-RAF G466V (Homo sapiens, UniProt P15056, G466V).
T1 construct: expressed in transfected cells; host or cells: T-Rex 293 cells (Invitrogen #R71007)
The experiment in a line: Target protein degradation, assay D: T-Rex 293 cells, HA-BRAF_G466V, 384 well format. The class given is cell-based. The following applies: T-Rex 293 HA-BRAF_G466V cells, 24 hours, Examples 83-269; for DC50: Assay D; for Dmax: T-REx-293, Assay D. The method, boiled down:
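Degradation measured by high-content imaging of anti-HA immunofluorescence in fixed T-Rex 293 cells carrying inducible HA-BRAF G466V (1 ng/mL doxycycline), after 24 h PROTAC exposure at 37 °C over 300 nM–5 pM (1:3, 11 points, 0.5% DMSO). Outputs DC50 and Dmax as % of control; nuclei counts against DMSO wells gauge toxicity.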

Experiment [2] has as its target T2, B-RAF V600E (Homo sapiens, UniProt P15056, V600E).
T2 construct: expressed in transfected cells; host or cells: T-Rex 293 cells (Invitrogen #R71007)
The experiment in a line: Target protein degradation, assay C: T-Rex 293 cells, HA-BRAF_V600E, 384 well format. The class given is cell-based. The following applies: T-Rex 293 HA-BRAF_V600E cells, 24 hours, Examples 83-269; for DC50: Assay C; for Dmax: T-REx-293, Assay C. The method, boiled down:
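After 24 h exposure to an 11-point 1:3 series (300 nM–5 pM, 0.5% DMSO), fixed T-Rex 293 cells carrying HA-BRAF V600E (induced with 1 ng/mL doxycycline) were stained anti-HA and imaged. DC50 and Dmax were derived from BRAF intensity relative to control, and cytotoxicity from nuclear counts.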

T1 sequence (P15056 whole entry G466V): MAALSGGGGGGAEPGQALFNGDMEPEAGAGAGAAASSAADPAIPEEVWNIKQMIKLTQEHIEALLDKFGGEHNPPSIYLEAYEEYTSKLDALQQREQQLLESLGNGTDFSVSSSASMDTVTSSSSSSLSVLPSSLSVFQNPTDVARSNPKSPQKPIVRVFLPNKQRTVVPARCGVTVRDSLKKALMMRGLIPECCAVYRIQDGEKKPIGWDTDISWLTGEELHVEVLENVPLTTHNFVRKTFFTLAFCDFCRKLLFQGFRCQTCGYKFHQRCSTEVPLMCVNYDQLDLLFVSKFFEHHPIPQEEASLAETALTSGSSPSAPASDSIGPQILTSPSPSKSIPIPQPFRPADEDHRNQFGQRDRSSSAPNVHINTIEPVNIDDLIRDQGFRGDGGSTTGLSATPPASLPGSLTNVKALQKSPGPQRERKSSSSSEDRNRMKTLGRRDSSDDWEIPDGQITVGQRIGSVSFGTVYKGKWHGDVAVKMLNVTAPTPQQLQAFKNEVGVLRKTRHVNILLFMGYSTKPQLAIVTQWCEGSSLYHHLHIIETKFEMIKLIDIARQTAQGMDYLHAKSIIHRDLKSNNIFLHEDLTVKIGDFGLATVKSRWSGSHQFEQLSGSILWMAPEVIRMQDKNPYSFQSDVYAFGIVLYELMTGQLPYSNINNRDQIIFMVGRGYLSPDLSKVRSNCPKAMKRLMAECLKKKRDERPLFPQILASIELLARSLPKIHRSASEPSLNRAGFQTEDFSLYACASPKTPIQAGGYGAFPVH
T2 sequence (P15056 whole entry V600E): as the sequence (P15056 whole entry G466V) above, with V466G, V600E counted along it

Turning to `N#Cc1c(NS(=O)(=O)N2CC[C@@H](F)C2)ccc(F)c1Oc1ccc2ncn(-c3ccc(N4CCC(CN5CCN(CC6CCN(c7ccc8c(c7)CN([C@H]7CCC(=O)NC7=O)C8=O)CC6)CC5)CC4)cc3)c(=O)c2c1` [Example 185, (3R)-N-{2-cyano-3-[(3-{4-[4-({4-[(1-{2-[(3S)-2,6-dioxopiperidin-3-yl]-1-oxo-2,3-dihydro-1H-isoindol-5-yl}piperidin-4-yl)methyl]piperazin-1-yl}methyl)piperidin-1-yl]phenyl}-4-oxo-3,4-dihydroquinazolin-6-yl)oxy]-4-fluorophenyl}-3-fluoropyrrolidine-1-sulfonamide], in experiment [1], the 50% degradation concentration (DC50) was 10 to 30 nM and the Dmax was at most 35%. In experiment [2], the half-maximal degradation concentration (DC50) lay within 50 to 500 nM and the maximal degradation (Dmax) was in the range of 35 to 70%.

For the compound `N#Cc1c(NS(=O)(=O)N2CC[C@@H](F)C2)ccc(F)c1Oc1ccc2ncn(-c3ccc(N4CCC(CN5CCN(CC6CCN(c7ccc8c(c7)CN([C@@H]7CCC(=O)NC7=O)C8=O)CC6)CC5)CC4)cc3)c(=O)c2c1` [Example 186, (3R)-N-{2-cyano-3-[(3-{4-[4-({4-[(1-{2-[(3R)-2,6-dioxopiperidin-3-yl]-1-oxo-2,3-dihydro-1H-isoindol-5-yl}piperidin-4-yl)methyl]piperazin-1-yl}methyl)piperidin-1-yl]phenyl}-4-oxo-3,4-dihydroquinazolin-6-yl)oxy]-4-fluorophenyl}-3-fluoropyrrolidine-1-sulfonamide], in experiment [1], the DC50 is 10 to 30 nM and the greatest degradation seen (Dmax) was at most 35%. In experiment [2], this compound displayed a DC50 of 50 to 500 nM and a Dmax of 35 to 70%.

Regarding `N#Cc1c(NS(=O)(=O)N2CC[C@@H](F)C2)ccc(F)c1Oc1ccc2ncn(-c3ccc(N4CCC(CN5CCC(c6ccc([C@H]7CCC(=O)NC7=O)cc6F)CC5)CC4)cc3)c(=O)c2c1` [Example 187, (3R)-N-(2-cyano-3-{[3-(4-{4-[(4-{4-[(3R)-2,6-dioxopiperidin-3-yl]-2-fluorophenyl}piperidin-1-yl)methyl]piperidin-1-yl}phenyl)-4-oxo-3,4-dihydroquinazolin-6-yl]oxy}-4-fluorophenyl)-3-fluoropyrrolidine-1-sulfonamide], in experiment [1], the DC50 was in the range of 1 to 10 nM and the greatest degradation seen (Dmax) is at most 35%. In experiment [2], the 50% degradation concentration (DC50) was in the range of 50 to 500 nM and the Dmax was at least 70%.

For the compound `N#Cc1c(NS(=O)(=O)N2CC[C@@H](F)C2)ccc(F)c1Oc1ccc2ncn(-c3ccc(N4CCC(CN5CCC(c6ccc([C@@H]7CCC(=O)NC7=O)cc6F)CC5)CC4)cc3)c(=O)c2c1` [Example 188, (3R)-N-(2-cyano-3-{[3-(4-{4-[(4-{4-[(3S)-2,6-dioxopiperidin-3-yl]-2-fluorophenyl}piperidin-1-yl)methyl]piperidin-1-yl}phenyl)-4-oxo-3,4-dihydroquinazolin-6-yl]oxy}-4-fluorophenyl)-3-fluoropyrrolidine-1-sulfonamide], in experiment [1], the half-maximal degradation concentration (DC50) fell in the range of 1 to 10 nM and the greatest degradation seen (Dmax) lay in the range of 35 to 70%. In experiment [2], this compound registered a 50% degradation concentration (DC50) of 50 to 500 nM and a Dmax of 35 to 70%.

For the compound `N#Cc1c(NS(=O)(=O)N2CC[C@@H](F)C2)ccc(F)c1Oc1ccc2ncn(-c3ccc(N4CC(CN5CCC(c6ccc7c(c6)CN([C@H]6CCC(=O)NC6=O)C7=O)CC5)C4)cc3)c(=O)c2c1` [Example 189, (3R)-N-(2-cyano-3-{[3-(4-{3-[(4-{2-[(3S)-2,6-dioxopiperidin-3-yl]-1-oxo-2,3-dihydro-1H-isoindol-5-yl}piperidin-1-yl)methyl]azetidin-1-yl}phenyl)-4-oxo-3,4-dihydroquinazolin-6-yl]oxy}-4-fluorophenyl)-3-fluoropyrrolidine-1-sulfonamide], in experiment [1], the DC50 is 1 to 10 nM and the Dmax was 35 to 70%. In experiment [2], the 50% degradation concentration (DC50) was 50 to 500 nM and the maximal degradation (Dmax) is 35 to 70%.

In experiment [1], `N#Cc1c(NS(=O)(=O)N2CC[C@@H](F)C2)ccc(F)c1Oc1ccc2ncn(-c3ccc(N4CC5(CC(CN6CCC(c7ccc8c(c7)CN(C7CCC(=O)NC7=O)C8=O)CC6)C5)C4)cc3)c(=O)c2c1` (stereo partly drawn) [Example 190, (3R)-N-{2-cyano-3-[(3-(4-[6-({4-[2-(2,6-dioxopiperidin-3-yl)-1-oxo-2,3-dihydro-1H-isoindol-5-yl]piperidin-1-yl}methyl)-2-azaspiro[3.3]heptan-2-yl]phenyl}-4-oxo-3,4-dihydroquinazolin-6-yl)oxy]-4-fluorophenyl}-3-fluoropyrrolidine-1-sulfonamide] registered a 50% degradation concentration (DC50) of 1 to 10 nM and a Dmax of 35 to 70%. In experiment [2], this compound showed a DC50 of 50 to 500 nM and a Dmax of 35 to 70%.

In experiment [1], `N#Cc1c(NS(=O)(=O)N2CC[C@@H](F)C2)ccc(F)c1Oc1ccc2ncn(-c3ccc(N4CC5(CC(CN6CCN(c7ccc8c(c7)CN([C@H]7CCC(=O)NC7=O)C8=O)CC6)C5)C4)cc3)c(=O)c2c1` [Example 191, (3R)-N-(2-cyano-3-{[3-(4-{6-[(4-{2-[(3S)-2,6-dioxopiperidin-3-yl]-1-oxo-2,3-dihydro-1H-isoindol-5-yl}piperazin-1-yl)methyl]-2-azaspiro[3.3]heptan-2-yl}phenyl)-4-oxo-3,4-dihydroquinazolin-6-yl]oxy}-4-fluorophenyl)-3-fluoropyrrolidine-1-sulfonamide] registered a DC50 of 1 to 10 nM and a Dmax of 35 to 70%. Further, in experiment [2], the DC50 lay in the range of 50 to 500 nM and the Dmax was in the range of 35 to 70%.

With `N#Cc1c(NS(=O)(=O)N2CC[C@@H](F)C2)ccc(F)c1Oc1ccc2ncn(-c3ccc(N4CC5(CCN(CC6CCN(c7ccc8c(c7)CN([C@H]7CCC(=O)NC7=O)C8=O)CC6)CC5)C4)cc3)c(=O)c2c1` [Example 192, (3R)-N-(2-cyano-3-{[3-(4-{7-[(1-{2-[(3S)-2,6-dioxopiperidin-3-yl]-1-oxo-2,3-dihydro-1H-isoindol-5-yl}piperidin-4-yl)methyl]-2,7-diazaspiro[3.5]nonan-2-yl}phenyl)-4-oxo-3,4-dihydroquinazolin-6-yl]oxy}-4-fluorophenyl)-3-fluoropyrrolidine-1-sulfonamide], the values for the half-maximal degradation concentration (DC50) in experiment [1] and in experiment [2] were 1 to 10 nM and 50 to 500 nM, respectively. In addition, the Dmax in experiment [1] and in experiment [2] was 35 to 70% throughout.

With `N#Cc1c(NS(=O)(=O)N2CC[C@@H](F)C2)ccc(F)c1Oc1ccc2ncn(-c3ccc(N4CC5(CCN(CC6CCN(c7ccc8c(c7)CN([C@@H]7CCC(=O)NC7=O)C8=O)CC6)CC5)C4)cc3)c(=O)c2c1` [Example 193, (3R)-N-(2-cyano-3-{[3-(4-{7-[(1-{2-[(3R)-2,6-dioxopiperidin-3-yl]-1-oxo-2,3-dihydro-1H-isoindol-5-yl}piperidin-4-yl)methyl]-2,7-diazaspiro[3.5]nonan-2-yl}phenyl)-4-oxo-3,4-dihydroquinazolin-6-yl]oxy}-4-fluorophenyl)-3-fluoropyrrolidine-1-sulfonamide], the DC50 in experiment [1] lay within 1 to 10 nM; in experiment [2] it was 50 to 500 nM. The Dmax in experiment [1] and in experiment [2] was 35 to 70% throughout.

In experiment [1], `N#Cc1c(NS(=O)(=O)N2CCC(F)C2)ccc(F)c1Oc1ccc2ncn(-c3ccc(N4CCN(CC5CN(c6ccc7c(c6)CN(C6CCC(=O)NC6=O)C7=O)C5)CC4)cc3)c(=O)c2c1` (stereo not drawn) [Example 194, N-{2-cyano-3-[(3-{4-[4-({1-[2-(2,6-dioxopiperidin-3-yl)-1-oxo-2,3-dihydro-1H-isoindol-5-yl]azetidin-3-yl}methyl)piperazin-1-yl]phenyl}-4-oxo-3,4-dihydroquinazolin-6-yl)oxy]-4-fluorophenyl}-3-fluoropyrrolidine-1-sulfonamide] displayed a DC50 of 1 to 10 nM and a Dmax of 35 to 70%. In experiment [2], this compound registered a DC50 of 50 to 500 nM and a maximal degradation (Dmax) of at most 35%.

In the case of `N#Cc1c(NS(=O)(=O)N2CC[C@H](F)C2)ccc(F)c1Oc1ccc2ncn(-c3ccc(N4CCN(CC5CN(c6ccc7c(c6)CN([C@H]6CCC(=O)NC6=O)C7=O)C5)CC4)cc3)c(=O)c2c1` [Example 195, (3S)-N-(2-cyano-3-{[3-(4-{4-[(1-{2-[(3S)-2,6-dioxopiperidin-3-yl]-1-oxo-2,3-dihydro-1H-isoindol-5-yl}azetidin-3-yl)methyl]piperazin-1-yl}phenyl)-4-oxo-3,4-dihydroquinazolin-6-yl]oxy}-4-fluorophenyl)-3-fluoropyrrolidine-1-sulfonamide], the results for the 50% degradation concentration (DC50) in experiment [1] and in experiment [2] were 1 to 10 nM and 50 to 500 nM, respectively. In addition, the Dmax in experiment [1] and in experiment [2] was at most 35% each time.

On to `N#Cc1c(NS(=O)(=O)N2CC[C@H](F)C2)ccc(F)c1Oc1ccc2ncn(-c3ccc(N4CCN(CC5CN(c6ccc7c(c6)CN([C@@H]6CCC(=O)NC6=O)C7=O)C5)CC4)cc3)c(=O)c2c1` [Example 196, (3S)-N-(2-cyano-3-{[3-(4-{4-[(1-{2-[(3R)-2,6-dioxopiperidin-3-yl]-1-oxo-2,3-dihydro-1H-isoindol-5-yl}azetidin-3-yl)methyl]piperazin-1-yl}phenyl)-4-oxo-3,4-dihydroquinazolin-6-yl]oxy}-4-fluorophenyl)-3-fluoropyrrolidine-1-sulfonamide], for which the 50% degradation concentration (DC50) in experiment [1] lay within 1 to 10 nM; in experiment [2], 50 to 500 nM. The maximal degradation (Dmax) in experiment [1] and in experiment [2] was 35 to 70% throughout.

In general, DC50 refers to the midpoint of the concentration-degradation curve. Read a high DC50 as a less potent degrader. In general, Dmax refers to the greatest extent of degradation seen. A low value points to a partial loss of target.
